Here are results for two compounds from publication PMC13534789, “Molecular Glue Degraders Enhance CAPRIN1‐Dependent Lysosomal Degradation of APP and Reduce Amyloid β in Alzheimer's Disease” (Advanced Science, 2026).

In one assay the target is CAPRIN1–APP interaction (Homo sapiens, UniProt P05067+Q14444). As to the kind of experiment: CAPRIN1–APP interaction in cells (co-IP, confocal colocalization). The assay is classed as cell-based. Conditions: 10 µM, 24 h; for APP–CAPRIN1 colocalization (confocal, Pearson's coefficient): AG27606-Ns and sAD2.3-Ns. The arrangement: endogenous in cells; host or cells: AG27606-Ns, sAD2.3-Ns (iPSC-derived neurons) and their lysates. As for the experimental part:
Cells were lysed in 1% Triton X‐100 buffer (50 mM Tris (pH 7.4), 150 mM NaCl, 10% glycerol, 1% Triton X‐100, 1 mM EDTA) or RIPA buffer (50 mM Tris (pH7.5), 150 mM NaCl, 0.5% NP40, 0.5% deoxycholate, 0.1% SDS) supplemented with 1 mM PMSF, protease and phosphatase inhibitors. For immunoprecipitation, cell lysates (0.5–1 mg) were incubated with the primary antibodies (1–2 µg) overnight at 4°C and mixed with protein G beads for 4 h. The immunoprecipitants were washed with 1% Triton X‐100 buffer 3 times and eluted with Laemmli buffer, followed by western blot. Immunoprecipitations were performed using the following approaches: (i) Tagged CAPRIN1 immunoprecipitation (HEK293 overexpression assays): HEK293 cells were co‐transfected with APP constructs (including APP695‐HiBiT) and Flag‐ or Myc‐tagged CAPRIN1. CAPRIN1 was immunoprecipitated using anti‐Flag or anti‐Myc antibodies, and co‐precipitated APP was detected by immunoblot; (ii) Endogenous APP immunoprecipitation: APP was immunoprecipitated using anti‐APP antibody (Sigma, A8717), followed by immunoblotting for CAPRIN1. Where indicated, reciprocal immunoprecipitation using anti‐CAPRIN1 antibody was performed, followed by APP detection; (iii) CAPRIN1 immunoprecipitation: In selected experiments, CAPRIN1 was immunoprecipitated using anti‐CAPRIN1 antibody (Proteintech, 15112‐1‐AP), and co‐precipitated proteins including APP and LAMP1 were analyzed by immunoblot; (iv) HiBiT‐based pull‐down assays: In HEK293 cells expressing APP695‐HiBiT, APP constructs were immunoprecipitated using anti‐HiBiT antibody (Promega, N7200), followed by detection of CAPRIN1. Western blot bands were quantified using Fiji (ImageJ) with background subtraction and normalized to loading controls.
Cells were grown on glass cover slips coated with 1% Matrigel and treated with drugs. Cells were washed, fixed, permeabilized, blocked, and incubated in primary antibodies diluted in blocking solution (1% v/v BSA solution/5% Goat serum in PBS containing 0.1% Triton X‐100) overnight at 4°C. The cells were washed three times with PBS and incubated in secondary antibodies in a blocking solution for 1 h at room temperature, then washed with PBS, followed by HOECHST staining (Invitrogen) for 5 min, and washed with PBS. The glass coverslips were put on a slide‐in mounting medium ([…]), and the edges were sealed with coverslip sealant (BIOTIUM). […]
ImageJ (Fiji) program (NIH, Bethesda, MD, USA) was used o analyze images. Pearson's correlation coefficients were calculated with the JACoP plugin from two channels (BIOP). […] Colocalized areas were calculated in the image calculator tool ([…] function) to get an overlayed area for the segmented signals, followed by using the analyze particle tool in Fiji to determine by > 1‐pixel overlapping of the segmented signal. […]

In assay [1] the target is T1, APP695–CAPRIN1 interaction (Homo sapiens, UniProt P05067+Q14444).
T1 construct: 10xHis‐MBP‐APP695 (full‐length) alone was loaded; 10xHis (N); MBP (followed by a 3C site) (N); 10xHis (followed by a 3C site) (N); made in house; host or cells: Tni (Hi5) insect cells, baculovirus
T1 sequence (P05067 18-695 isoform P05067-4 limits assumed): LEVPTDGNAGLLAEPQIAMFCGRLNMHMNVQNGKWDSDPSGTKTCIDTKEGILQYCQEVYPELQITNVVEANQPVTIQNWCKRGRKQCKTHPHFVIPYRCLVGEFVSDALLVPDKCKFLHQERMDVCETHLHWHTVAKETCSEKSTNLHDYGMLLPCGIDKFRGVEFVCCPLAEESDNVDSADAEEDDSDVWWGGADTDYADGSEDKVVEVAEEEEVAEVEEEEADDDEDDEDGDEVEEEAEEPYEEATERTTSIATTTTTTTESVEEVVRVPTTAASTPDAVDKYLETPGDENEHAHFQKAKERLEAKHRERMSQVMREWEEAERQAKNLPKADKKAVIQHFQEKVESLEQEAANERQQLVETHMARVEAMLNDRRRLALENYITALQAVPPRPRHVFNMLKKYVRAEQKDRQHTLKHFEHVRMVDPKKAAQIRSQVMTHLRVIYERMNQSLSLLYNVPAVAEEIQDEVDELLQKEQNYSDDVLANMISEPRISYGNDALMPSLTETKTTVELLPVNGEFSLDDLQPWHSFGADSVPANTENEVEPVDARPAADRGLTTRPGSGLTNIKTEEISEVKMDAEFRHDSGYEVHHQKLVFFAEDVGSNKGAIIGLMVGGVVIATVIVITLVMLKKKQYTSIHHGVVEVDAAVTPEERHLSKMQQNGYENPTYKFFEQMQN
T1 sequence (Q14444 whole entry): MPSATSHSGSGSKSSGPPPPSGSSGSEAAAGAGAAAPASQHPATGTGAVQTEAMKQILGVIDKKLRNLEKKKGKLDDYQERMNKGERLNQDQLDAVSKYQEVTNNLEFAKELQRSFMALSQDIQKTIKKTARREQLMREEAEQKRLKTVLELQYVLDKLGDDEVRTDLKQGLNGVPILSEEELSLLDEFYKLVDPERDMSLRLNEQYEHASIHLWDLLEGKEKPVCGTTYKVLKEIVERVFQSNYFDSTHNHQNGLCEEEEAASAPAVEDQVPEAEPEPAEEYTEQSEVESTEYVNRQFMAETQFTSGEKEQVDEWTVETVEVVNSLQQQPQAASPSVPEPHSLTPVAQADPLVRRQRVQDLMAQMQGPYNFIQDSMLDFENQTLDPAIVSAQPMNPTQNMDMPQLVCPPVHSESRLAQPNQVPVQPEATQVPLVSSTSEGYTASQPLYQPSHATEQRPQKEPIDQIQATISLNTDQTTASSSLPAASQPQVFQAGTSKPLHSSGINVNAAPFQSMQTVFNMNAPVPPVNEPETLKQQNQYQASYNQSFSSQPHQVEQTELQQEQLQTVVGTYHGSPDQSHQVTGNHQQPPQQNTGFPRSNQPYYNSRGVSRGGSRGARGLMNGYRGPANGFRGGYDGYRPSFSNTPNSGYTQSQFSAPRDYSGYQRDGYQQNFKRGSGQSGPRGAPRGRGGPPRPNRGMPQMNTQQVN
As to the kind of experiment: SPR, APP695 onto immobilized CAPRIN1 with 0152. It is filed as binding. To be noted: equimolar 0152 vs no compound. The method, then:
SPR experiments were conducted to investigate the interaction between APP695 and CAPRIN1 proteins using a Biacore T200 instrument (Cytiva). Both proteins were expressed in Tni (Hi5) insect cells and purified to homogeneity via tandem affinity and ion‐exchange. Protein purity and integrity were confirmed by SDS‐PAGE and size‐exclusion chromatography prior to analysis. All experiments were performed in a running buffer consisting of 50 mM HEPES at […], 100 mM KCl, 10% glycerol, and 0.01% (v/v) Tween‐20 supplemented with 0.1% (w/v) Sarkosyl (pH 7.4). APP695 was serially diluted in running buffer to final concentrations of 15, 5, 1, and 0.3 µM. Chip Preparation: A CM5 sensor chip (Cytiva) was activated using a 1:1 (v/v) mixture of 0.1 M N‐hydroxysuccinimide (NHS) and 0.1 M N‐ethyl‐N′‐(3‐dimethylaminopropyl) carbodiimide (EDC) to generate reactive ester groups. CAPRIN1 was diluted to 50 µg/mL in 10 mM Hepes‐KOH buffer (pH 6.0) and immobilized on the chip surface via standard amine coupling to achieve immobilization. Unreacted sites were blocked with 1 M ethanolamine‐HCl (pH 8.5). A reference flow cell was prepared similarly but without protein immobilization to control for non‐specific binding and bulk refractive index changes. Binding assay: Binding interactions were measured at 25°C with a flow rate of 30 µL/min. APP695 solutions were injected over the CAPRIN1‐immobilized and reference flow cells for 45 s (association phase), followed by a 240 s dissociation phase with running buffer alone. Internal control injections for one concentration of APP695 were performed to ensure reproducibility for every round of the experiment. […] APP (1–300) was also tested for binding to CAPRIN1 under identical conditions. To assess potential non‐specific interactions, 0043 and 0152 were tested for binding to APP‐695 captured on a CM5 chip using a steady‐state model. Data analysis: Sensograms were processed using Biacore T200 Evaluation Software. […]
(In general: In SPR one partner is held on a chip, and binding of the other changes the refractive index at the surface.)

Chain of CAPRIN1–APP interaction (Q14444 2-709 limits assumed): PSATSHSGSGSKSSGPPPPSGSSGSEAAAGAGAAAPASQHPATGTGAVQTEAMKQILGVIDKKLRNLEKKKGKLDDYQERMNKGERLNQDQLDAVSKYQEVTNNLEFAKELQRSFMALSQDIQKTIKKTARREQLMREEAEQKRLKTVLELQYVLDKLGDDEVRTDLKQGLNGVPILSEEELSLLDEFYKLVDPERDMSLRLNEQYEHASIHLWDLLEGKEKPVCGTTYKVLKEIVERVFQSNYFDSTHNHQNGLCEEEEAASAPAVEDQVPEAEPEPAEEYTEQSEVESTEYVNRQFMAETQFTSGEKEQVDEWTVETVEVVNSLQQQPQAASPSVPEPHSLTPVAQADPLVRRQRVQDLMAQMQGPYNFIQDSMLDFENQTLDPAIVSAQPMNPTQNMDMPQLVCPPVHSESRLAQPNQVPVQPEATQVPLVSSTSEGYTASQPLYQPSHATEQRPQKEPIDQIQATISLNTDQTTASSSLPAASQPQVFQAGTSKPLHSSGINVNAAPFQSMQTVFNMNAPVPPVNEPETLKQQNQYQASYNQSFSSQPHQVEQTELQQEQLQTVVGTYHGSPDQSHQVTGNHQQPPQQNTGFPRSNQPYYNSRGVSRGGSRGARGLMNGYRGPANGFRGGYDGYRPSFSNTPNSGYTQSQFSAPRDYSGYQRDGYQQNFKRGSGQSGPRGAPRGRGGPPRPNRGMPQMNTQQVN
Chain of CAPRIN1–APP interaction (P05067 18-695 isoform P05067-4 limits assumed): as the sequence (P05067 18-695 isoform P05067-4 limits assumed) above

With `N#Cc1cccc(NC(=O)Nc2nc3ccc(C(=O)N4CCOCC4)cc3s2)c1` [compound 0043], the “APP–CAPRIN1 colocalization (confocal, Pearson's coefficient)” value at CAPRIN1–APP interaction was “increased co‐localization of APP and CAPRIN1”. For the same compound, at CAPRIN1–APP interaction (AG27606-Ns), the “CAPRIN1–APP interaction (APP IP, CAPRIN1 immunoblot)” value is given as “enhances CAPRIN1‐APP interaction”. Further, the “CAPRIN1–APP interaction (co-IP)” value at CAPRIN1–APP interaction (HEK-APP695 cells) is “enhanced the interaction between CAPRIN1 and APP”.
For the compound `COc1cccc(NC(=O)Nc2nc3ccc(C(=O)N4CCOCC4)cc3s2)c1` [compound 0152], the “APP–CAPRIN1 colocalization (confocal, Pearson's coefficient)” value at CAPRIN1–APP interaction was “increased colocalization of APP and CAPRIN1”. Moreover, in assay [1], the “Decrease of dissociation rate constant (Koff) of APP695–CAPRIN1” value was found to be 10 fold, the “Increase of association rate constant (Kon) of APP695–CAPRIN1” value is reported as 3.5 fold and the “Reduction of equilibrium dissociation constant (KD) of APP695–CAPRIN1” value is on record as 36 fold.
